Measured values as given in paper PMC9329436, “Optimization of the 4-anilinoquin(az)oline scaffold as epidermal growth factor receptor (EGFR) inhibitors for chordoma utilizing a toxicology profiling assay platform” (Scientific Reports, 2022).
Read-outs that look alike come from different tables or passages of the source.

Key:
Type in all cases: biochemical
[1] = biological target: 320 wild-type protein kinases (Homo sapiens, UniProt O43293); conditions: singlicate
Source text: (§1) Table S4. Profiling of two compounds at two concentrations against 320 wild-type protein kinases; singlicate measurement; Residual activities (% of control).

[2] = biological target: T1, 320 wild-type protein kinases (Homo sapiens, UniProt O94806); conditions: PKC-nu, singlicate
T1 sequence (O94806 1-890): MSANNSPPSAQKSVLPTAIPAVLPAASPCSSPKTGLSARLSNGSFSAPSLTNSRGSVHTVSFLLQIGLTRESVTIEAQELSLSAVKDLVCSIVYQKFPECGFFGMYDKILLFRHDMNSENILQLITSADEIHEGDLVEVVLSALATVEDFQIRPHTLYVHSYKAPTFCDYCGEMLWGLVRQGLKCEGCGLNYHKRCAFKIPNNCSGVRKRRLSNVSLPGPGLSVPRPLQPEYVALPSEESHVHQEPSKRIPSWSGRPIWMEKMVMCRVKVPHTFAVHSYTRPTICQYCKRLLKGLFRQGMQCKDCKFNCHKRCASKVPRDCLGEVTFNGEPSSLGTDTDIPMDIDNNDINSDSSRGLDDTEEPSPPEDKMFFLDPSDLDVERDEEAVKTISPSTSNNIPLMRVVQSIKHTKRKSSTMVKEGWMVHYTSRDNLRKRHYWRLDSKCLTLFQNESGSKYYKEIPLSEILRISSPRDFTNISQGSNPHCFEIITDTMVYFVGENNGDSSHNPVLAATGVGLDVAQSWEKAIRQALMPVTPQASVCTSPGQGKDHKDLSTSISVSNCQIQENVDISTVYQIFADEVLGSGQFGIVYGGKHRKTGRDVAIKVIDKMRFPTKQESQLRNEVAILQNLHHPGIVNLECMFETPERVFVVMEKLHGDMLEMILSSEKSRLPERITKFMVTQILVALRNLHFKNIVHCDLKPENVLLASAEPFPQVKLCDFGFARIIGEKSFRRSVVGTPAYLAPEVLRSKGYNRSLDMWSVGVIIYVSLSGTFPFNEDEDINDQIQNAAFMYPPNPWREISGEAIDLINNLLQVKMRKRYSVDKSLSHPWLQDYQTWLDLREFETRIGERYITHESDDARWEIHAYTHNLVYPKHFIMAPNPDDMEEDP
Source text: as §1

[3] = biological target: 320 wild-type protein kinases (Homo sapiens, UniProt P08069); conditions: IGF1-R, singlicate
Source text: as §1

[4] = biological target: T2, 320 wild-type protein kinases (Homo sapiens, UniProt P43403); conditions: kinase ZAP70, singlicate
T2 sequence (P43403 1-619): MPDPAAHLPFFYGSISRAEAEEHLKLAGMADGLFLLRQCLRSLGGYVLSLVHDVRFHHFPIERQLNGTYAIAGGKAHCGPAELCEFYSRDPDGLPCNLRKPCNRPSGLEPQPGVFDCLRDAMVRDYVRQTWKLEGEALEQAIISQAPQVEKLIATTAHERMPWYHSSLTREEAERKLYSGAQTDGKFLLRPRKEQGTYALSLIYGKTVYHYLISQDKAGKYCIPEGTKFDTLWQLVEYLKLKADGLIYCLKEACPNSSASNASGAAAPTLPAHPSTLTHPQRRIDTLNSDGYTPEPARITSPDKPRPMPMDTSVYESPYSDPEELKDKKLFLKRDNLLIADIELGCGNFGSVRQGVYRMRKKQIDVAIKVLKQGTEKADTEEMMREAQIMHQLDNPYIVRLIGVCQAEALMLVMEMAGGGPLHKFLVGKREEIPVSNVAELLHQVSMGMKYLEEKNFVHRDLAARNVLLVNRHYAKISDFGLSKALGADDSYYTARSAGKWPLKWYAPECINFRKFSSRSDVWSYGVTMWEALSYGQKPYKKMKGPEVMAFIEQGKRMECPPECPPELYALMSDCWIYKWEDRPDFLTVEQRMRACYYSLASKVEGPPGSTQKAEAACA
Source text: as §1

[5] = biological target: 320 wild-type protein kinases (Homo sapiens, UniProt P43405); conditions: kinase SYK aa1-635, singlicate
Source text: as §1

[6] = biological target: 320 wild-type protein kinases (Homo sapiens, UniProt P50750); conditions: singlicate
Source text: as §1

[7] = biological target: 320 wild-type protein kinases (Homo sapiens, UniProt P68400); conditions: singlicate
Source text: as §1

[8] = biological target: 320 wild-type protein kinases (Homo sapiens, UniProt Q02750); conditions: singlicate
Source text: as §1

[9] = biological target: 320 wild-type protein kinases (Homo sapiens, UniProt Q02763); conditions: kinase TIE2, singlicate
Source text: as §1

[10] = biological target: 320 wild-type protein kinases (Homo sapiens, UniProt Q13464); conditions: kinase ROCK1, singlicate
Source text: as §1

[11] = biological target: 320 wild-type protein kinases (Homo sapiens, UniProt Q13882); conditions: BRK, singlicate
Source text: as §1

[12] = biological target: 320 wild-type protein kinases (Homo sapiens, UniProt Q96RR4); conditions: singlicate
Source text: as §1

[13] = biological target: 320 wild-type protein kinases (Homo sapiens, UniProt Q9H2X6); conditions: singlicate
Source text: as §1

[14] = biological target: 320 wild-type protein kinases (Homo sapiens, UniProt Q9HC98); conditions: singlicate
Source text: as §1

[15] = biological target: 320 wild-type protein kinases (Homo sapiens, UniProt Q9Y463); conditions: DYRK1B, singlicate
Source text: as §1

Sequence of 320 wild-type protein kinases (Homo sapiens, UniProt Q02763) (Q02763 23-1124): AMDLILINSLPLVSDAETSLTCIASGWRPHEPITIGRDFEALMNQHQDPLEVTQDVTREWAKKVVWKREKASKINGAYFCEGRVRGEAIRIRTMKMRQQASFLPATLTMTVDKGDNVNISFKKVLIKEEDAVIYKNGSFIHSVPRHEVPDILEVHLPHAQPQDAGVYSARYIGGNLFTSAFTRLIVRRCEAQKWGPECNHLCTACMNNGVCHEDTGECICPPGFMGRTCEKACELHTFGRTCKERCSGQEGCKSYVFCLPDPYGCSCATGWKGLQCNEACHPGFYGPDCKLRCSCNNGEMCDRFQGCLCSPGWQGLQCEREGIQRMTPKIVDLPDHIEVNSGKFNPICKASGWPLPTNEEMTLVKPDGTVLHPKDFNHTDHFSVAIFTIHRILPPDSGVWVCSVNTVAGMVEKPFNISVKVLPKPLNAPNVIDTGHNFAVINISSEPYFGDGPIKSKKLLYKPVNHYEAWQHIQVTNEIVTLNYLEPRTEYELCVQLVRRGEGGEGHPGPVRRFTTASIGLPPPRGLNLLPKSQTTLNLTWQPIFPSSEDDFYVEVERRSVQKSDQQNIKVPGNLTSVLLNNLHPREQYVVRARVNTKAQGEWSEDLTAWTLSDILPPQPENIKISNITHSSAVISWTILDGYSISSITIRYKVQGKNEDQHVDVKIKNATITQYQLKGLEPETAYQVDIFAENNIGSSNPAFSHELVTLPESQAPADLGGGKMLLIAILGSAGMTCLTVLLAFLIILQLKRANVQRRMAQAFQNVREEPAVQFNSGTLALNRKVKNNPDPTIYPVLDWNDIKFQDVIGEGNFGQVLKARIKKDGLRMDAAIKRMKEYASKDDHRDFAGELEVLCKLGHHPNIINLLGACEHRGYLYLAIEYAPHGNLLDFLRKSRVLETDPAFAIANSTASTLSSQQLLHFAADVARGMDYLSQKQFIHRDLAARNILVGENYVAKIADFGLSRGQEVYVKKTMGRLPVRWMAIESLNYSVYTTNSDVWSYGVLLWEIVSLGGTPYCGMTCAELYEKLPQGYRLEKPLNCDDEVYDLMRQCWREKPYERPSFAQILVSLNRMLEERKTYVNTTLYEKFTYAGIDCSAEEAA
Sequence of 320 wild-type protein kinases (Homo sapiens, UniProt P68400) (P68400 whole entry): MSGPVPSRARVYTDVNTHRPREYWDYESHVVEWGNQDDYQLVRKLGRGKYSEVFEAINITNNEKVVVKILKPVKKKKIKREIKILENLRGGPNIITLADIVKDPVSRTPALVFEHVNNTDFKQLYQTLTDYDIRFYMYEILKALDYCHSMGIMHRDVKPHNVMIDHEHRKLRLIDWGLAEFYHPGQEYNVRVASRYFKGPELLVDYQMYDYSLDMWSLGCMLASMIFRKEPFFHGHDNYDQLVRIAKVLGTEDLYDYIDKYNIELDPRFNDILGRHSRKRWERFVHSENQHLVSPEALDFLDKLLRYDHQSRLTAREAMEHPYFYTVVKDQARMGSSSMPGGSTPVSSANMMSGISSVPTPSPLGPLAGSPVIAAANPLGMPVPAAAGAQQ
Sequence of 320 wild-type protein kinases (Homo sapiens, UniProt Q96RR4) (Q96RR4 whole entry): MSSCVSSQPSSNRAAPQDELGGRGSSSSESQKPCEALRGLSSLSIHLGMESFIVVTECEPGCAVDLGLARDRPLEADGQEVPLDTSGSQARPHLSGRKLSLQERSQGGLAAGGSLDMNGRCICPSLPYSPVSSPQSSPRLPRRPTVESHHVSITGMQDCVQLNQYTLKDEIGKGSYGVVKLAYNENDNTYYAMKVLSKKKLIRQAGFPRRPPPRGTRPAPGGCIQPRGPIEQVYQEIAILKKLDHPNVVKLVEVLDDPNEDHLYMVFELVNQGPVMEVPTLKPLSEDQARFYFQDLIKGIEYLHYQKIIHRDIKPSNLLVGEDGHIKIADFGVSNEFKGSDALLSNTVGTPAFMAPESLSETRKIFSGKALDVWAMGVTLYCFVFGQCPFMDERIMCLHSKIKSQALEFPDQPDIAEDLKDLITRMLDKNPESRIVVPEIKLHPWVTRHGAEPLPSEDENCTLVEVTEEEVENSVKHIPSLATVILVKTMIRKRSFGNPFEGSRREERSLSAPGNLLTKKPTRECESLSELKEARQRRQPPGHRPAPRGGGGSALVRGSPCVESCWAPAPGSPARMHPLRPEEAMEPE
Sequence of 320 wild-type protein kinases (Homo sapiens, UniProt O43293) (O43293 whole entry): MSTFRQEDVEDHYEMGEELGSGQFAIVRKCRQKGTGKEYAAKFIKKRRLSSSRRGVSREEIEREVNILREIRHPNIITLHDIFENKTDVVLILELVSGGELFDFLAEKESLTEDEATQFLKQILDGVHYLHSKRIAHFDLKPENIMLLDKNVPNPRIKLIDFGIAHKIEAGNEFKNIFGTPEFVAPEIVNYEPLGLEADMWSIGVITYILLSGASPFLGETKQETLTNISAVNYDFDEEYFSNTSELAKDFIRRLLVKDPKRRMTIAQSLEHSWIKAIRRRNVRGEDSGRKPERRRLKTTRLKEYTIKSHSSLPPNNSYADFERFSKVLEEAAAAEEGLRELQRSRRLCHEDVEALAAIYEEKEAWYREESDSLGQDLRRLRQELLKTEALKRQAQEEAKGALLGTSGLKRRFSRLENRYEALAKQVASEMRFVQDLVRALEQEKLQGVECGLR
Sequence of 320 wild-type protein kinases (Homo sapiens, UniProt P08069) (P08069 31-1367): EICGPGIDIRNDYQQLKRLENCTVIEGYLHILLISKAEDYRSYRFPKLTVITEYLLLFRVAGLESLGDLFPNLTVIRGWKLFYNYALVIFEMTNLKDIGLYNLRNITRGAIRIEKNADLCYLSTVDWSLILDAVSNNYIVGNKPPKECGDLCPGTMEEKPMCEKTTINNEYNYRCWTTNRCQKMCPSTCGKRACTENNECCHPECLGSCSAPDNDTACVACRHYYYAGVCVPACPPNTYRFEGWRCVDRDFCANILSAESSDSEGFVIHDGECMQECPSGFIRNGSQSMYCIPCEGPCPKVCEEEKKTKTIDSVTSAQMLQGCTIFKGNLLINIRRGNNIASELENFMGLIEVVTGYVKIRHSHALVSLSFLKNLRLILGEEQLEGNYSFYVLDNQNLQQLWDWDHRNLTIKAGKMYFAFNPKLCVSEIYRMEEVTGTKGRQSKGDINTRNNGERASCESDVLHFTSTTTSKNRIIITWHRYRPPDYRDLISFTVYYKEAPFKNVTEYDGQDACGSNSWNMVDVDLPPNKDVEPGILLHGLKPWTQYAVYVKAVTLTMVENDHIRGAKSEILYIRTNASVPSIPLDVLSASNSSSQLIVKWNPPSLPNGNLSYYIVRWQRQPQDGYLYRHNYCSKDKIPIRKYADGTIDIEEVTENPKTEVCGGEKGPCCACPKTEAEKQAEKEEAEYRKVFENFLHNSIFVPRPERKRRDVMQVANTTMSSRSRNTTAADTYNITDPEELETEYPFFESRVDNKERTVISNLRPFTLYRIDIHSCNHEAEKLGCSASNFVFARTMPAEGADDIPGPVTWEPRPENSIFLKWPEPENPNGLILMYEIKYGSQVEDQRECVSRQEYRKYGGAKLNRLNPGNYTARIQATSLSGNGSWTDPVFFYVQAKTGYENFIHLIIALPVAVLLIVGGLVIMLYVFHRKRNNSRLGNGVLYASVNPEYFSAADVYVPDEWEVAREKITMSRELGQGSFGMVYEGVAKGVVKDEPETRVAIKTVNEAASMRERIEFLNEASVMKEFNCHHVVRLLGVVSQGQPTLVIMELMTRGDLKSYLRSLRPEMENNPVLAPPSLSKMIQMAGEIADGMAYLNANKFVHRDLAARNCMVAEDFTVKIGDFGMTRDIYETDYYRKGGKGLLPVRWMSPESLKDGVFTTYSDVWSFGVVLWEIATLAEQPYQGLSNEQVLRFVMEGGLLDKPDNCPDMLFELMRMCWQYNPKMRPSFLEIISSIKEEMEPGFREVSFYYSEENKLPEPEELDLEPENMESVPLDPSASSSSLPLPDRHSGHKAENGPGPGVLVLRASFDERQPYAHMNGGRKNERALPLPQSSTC
Sequence of 320 wild-type protein kinases (Homo sapiens, UniProt Q13882) (Q13882 whole entry): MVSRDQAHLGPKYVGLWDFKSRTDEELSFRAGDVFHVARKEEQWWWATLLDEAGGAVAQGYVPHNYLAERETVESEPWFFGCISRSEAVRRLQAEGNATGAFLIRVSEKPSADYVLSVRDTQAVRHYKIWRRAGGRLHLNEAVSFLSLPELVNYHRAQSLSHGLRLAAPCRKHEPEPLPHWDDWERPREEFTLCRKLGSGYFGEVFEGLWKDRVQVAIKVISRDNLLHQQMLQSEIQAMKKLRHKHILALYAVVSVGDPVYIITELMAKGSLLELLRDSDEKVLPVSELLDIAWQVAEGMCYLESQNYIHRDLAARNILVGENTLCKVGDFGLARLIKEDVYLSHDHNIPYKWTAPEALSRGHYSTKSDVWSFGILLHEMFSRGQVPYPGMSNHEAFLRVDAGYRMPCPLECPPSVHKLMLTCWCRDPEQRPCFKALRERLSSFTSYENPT
Sequence of 320 wild-type protein kinases (Homo sapiens, UniProt Q9HC98) (Q9HC98 whole entry): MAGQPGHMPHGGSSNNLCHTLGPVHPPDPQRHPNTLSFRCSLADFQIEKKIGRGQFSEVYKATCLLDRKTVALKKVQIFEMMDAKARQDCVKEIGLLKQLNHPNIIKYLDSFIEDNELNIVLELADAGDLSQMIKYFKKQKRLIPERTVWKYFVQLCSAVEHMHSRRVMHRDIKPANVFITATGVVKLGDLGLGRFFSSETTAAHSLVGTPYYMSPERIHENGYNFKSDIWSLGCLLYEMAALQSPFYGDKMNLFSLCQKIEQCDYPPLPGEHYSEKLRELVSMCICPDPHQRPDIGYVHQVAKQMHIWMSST
Sequence of 320 wild-type protein kinases (Homo sapiens, UniProt P50750) (P50750 whole entry): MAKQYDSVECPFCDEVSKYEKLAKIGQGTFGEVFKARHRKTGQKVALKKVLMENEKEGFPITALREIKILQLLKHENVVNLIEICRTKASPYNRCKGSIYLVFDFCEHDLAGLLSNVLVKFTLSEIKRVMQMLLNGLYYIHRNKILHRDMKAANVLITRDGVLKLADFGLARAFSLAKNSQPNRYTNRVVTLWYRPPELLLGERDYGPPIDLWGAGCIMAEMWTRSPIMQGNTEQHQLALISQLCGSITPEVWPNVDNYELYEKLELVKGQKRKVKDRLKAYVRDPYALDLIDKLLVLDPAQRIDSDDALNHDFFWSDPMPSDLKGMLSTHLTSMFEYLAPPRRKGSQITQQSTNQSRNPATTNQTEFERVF

Compound | Residual activity ([1]; DAPK3, 1.0E-06 M) | Residual activity ([1]; DAPK3, 1.0E-07 M) | Residual activity ([2]; 1.0E-06 M) | Residual activity ([2]; 1.0E-07 M) | Residual activity ([3]; 1.0E-06 M) | Residual activity ([3]; 1.0E-07 M) | Residual activity, ZAP70 ([4]; assay conc. 1.0E-06 M) | Residual activity, ZAP70 ([4]; assay conc. 1.0E-07 M) | Residual activity, SYK aa1-635 ([5]; assay conc. 1.0E-06 M) | Residual activity, SYK aa1-635 ([5]; assay conc. 1.0E-07 M) | Residual activity ([6]; CDK9/CycK, 1.0E-06 M) | Residual activity ([6]; CDK9/CycK, 1.0E-07 M) | Residual activity ([6]; CDK9/CycT1, 1.0E-06 M) | Residual activity ([6]; CDK9/CycT1, 1.0E-07 M) | Residual activity ([7]; CK2-alpha1, 1.0E-06 M) | Residual activity ([7]; CK2-alpha1, 1.0E-07 M) | Residual activity ([8]; MEK1, 1.0E-06 M) | Residual activity ([8]; MEK1, 1.0E-07 M) | Residual activity, TIE2 ([9]; assay conc. 1.0E-06 M) | Residual activity, TIE2 ([9]; assay conc. 1.0E-07 M) | also measured
C#Cc1cc(Nc2ncnc3cc(I)ccc23)ccc1Cl [Compound 41] | 109 % of control | 110 % of control | 86 % of control | 87 % of control | 103 % of control | 109 % of control | 103 % of control | 111 % of control | 94 % of control | 94 % of control | 80 % of control | 99 % of control | 92 % of control | 95 % of control | 99 % of control | 104 % of control | 104 % of control | 109 % of control | 87 % of control | 84 % of control | Residual activity, ROCK1 ([10]; assay conc. 1.0E-06 M): 91 % of control; Residual activity, ROCK1 ([10]; assay conc. 1.0E-07 M): 84 % of control; Residual activity ([11]; 1.0E-06 M): 110 % of control; Residual activity ([11]; 1.0E-07 M): 100 % of control; Residual activity ([12]; CAMKK2, 1.0E-06 M): 71 % of control; Residual activity ([12]; CAMKK2, 1.0E-07 M): 96 % of control; Residual activity ([13]; HIPK2, 1.0E-06 M): 101 % of control; Residual activity ([13]; HIPK2, 1.0E-07 M): 97 % of control; Residual activity ([14]; NEK6, 1.0E-06 M): 92 % of control; Residual activity ([14]; NEK6, 1.0E-07 M): 84 % of control; Residual activity ([15]; 1.0E-06 M): 90 % of control; Residual activity ([15]; 1.0E-07 M): 116 % of control
C#Cc1cc(Nc2ncnc3cc(OC)c(OC)cc23)ccc1Cl [Compound 45] | 114 % of control | 112 % of control | 84 % of control | 99 % of control | 101 % of control | 122 % of control | 104 % of control | 100 % of control | 104 % of control | 105 % of control | 86 % of control | 103 % of control | 88 % of control | 90 % of control | 101 % of control | 109 % of control | 109 % of control | 105 % of control | 82 % of control | 111 % of control | Residual activity, ROCK1 ([10]; assay conc. 1.0E-06 M): 83 % of control; Residual activity, ROCK1 ([10]; assay conc. 1.0E-07 M): 98 % of control; Residual activity ([11]; 1.0E-06 M): 70 % of control; Residual activity ([11]; 1.0E-07 M): 96 % of control; Residual activity ([12]; CAMKK2, 1.0E-06 M): 74 % of control; Residual activity ([12]; CAMKK2, 1.0E-07 M): 79 % of control; Residual activity ([13]; HIPK2, 1.0E-06 M): 94 % of control; Residual activity ([13]; HIPK2, 1.0E-07 M): 98 % of control; Residual activity ([14]; NEK6, 1.0E-06 M): 92 % of control; Residual activity ([14]; NEK6, 1.0E-07 M): 90 % of control; Residual activity ([15]; 1.0E-06 M): 111 % of control; Residual activity ([15]; 1.0E-07 M): 105 % of control
